Test results: US20170190671A1, “BIS(ARYL)CATECHOL DERIVATIVES AS HERBICIDES” (E I DU PONT DE NEMOURS AND COMPANY, priority 2014, published 2017)

Experiments:
Type in all cases: in vivo
[1] = system: galium (catchweed bedstraw, Galium aparine); assay: Test C preemergence; conditions: Galium, pre-emergence, 336 h, scale 0 to 100, read-out: Plant response rating, Galium
In short: (§1)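 After preemergence treatment of seeds in loam-sand soil or foliar treatment at the 1- to 4-leaf stage of plants in peat/vermiculite medium, pots were kept 13-15 days in the greenhouse. Each was then scored visually, 0 meaning no effect and 100 complete control.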

[2] = system: morningglory (Ipomoea coccinea); assay: Test C preemergence; conditions: Ipomoea, pre-emergence, 336 h, scale 0 to 100, read-out: Plant response rating, Morningglory
In short: as §1

[3] = system: oilseed rape (Brassica napus); assay: Test C preemergence; conditions: Brassica napus, pre-emergence, scale 0 to 100, read-out: Plant response rating, Oilseed Rape
In short: as §1

[4] = system: waterhemp (common waterhemp, Amaranthus rudis); assay: Test C preemergence; conditions: Amaranthus tuberculatus, pre-emergence, scale 0 to 100, read-out: Plant response rating, Waterhemp
In short: as §1

[5] = system: Italian ryegrass (Lolium multiflorum); assay: Test C postemergence; conditions: Lolium multiflorum, post-emergence, 336 h, Postemergence, scale 0 to 100, read-out: Plant response rating, Ryegrass, Italian
In short: as §1

[6] = system: barnyardgrass (Echinochloa crus-galli); assay: Test C postemergence; conditions: Echinochloa crus-galli, post-emergence, Postemergence, scale 0 to 100, read-out: Plant response rating, Barnyardgrass
In short: as §1

[7] = system: blackgrass (Alopecurus myosuroides); assay: Test C postemergence; conditions: Alopecurus myosuroides, post-emergence, 336 h, Postemergence, scale 0 to 100, read-out: Plant response rating, Blackgrass
In short: as §1

[8] = system: chickweed (common chickweed, Stellaria media); assay: Test C postemergence; conditions: Stellaria media, post-emergence, Postemergence, scale 0 to 100, read-out: Plant response rating, Chickweed
In short: as §1

corn (Zea mays) = assay: Test C postemergence; conditions: Zea mays, post-emergence, 336 h, Postemergence, scale 0 to 100
In short: as §1

[9] = system: johnsongrass (Sorghum halepense); assay: Test C postemergence; conditions: Sorghum halepense, post-emergence, 336 h, Postemergence, scale 0 to 100, read-out: Plant response rating, Johnsongrass
In short: as §1

kochia (Kochia scoparia) = assay: Test C postemergence; conditions: Bassia scoparia, post-emergence, Postemergence, scale 0 to 100, read-out: Plant response rating, Kochia
In short: as §1

[10] = system: lambsquarters (Chenopodium album); assay: Test C postemergence; conditions: Chenopodium album, post-emergence, 336 h, Postemergence, scale 0 to 100, read-out: Plant response rating, Lambsquarters
In short: as §1

[11] = system: large (Lg) crabgrass (Digitaria sanguinalis); assay: Test C postemergence; conditions: Digitaria sanguinalis, post-emergence, 336 h, Postemergence, scale 0 to 100, read-out: Plant response rating, Crabgrass, Large
In short: as §1

[12] = system: oilseed rape (Brassica napus); assay: Test C postemergence; conditions: Brassica napus, post-emergence, Postemergence, scale 0 to 100, read-out: Plant response rating, Oilseed Rape
In short: as §1

[13] = system: pigweed (Amaranthus retroflexus); assay: Test C postemergence; conditions: Amaranthus retroflexus, post-emergence, 336 h, Postemergence, scale 0 to 100, read-out: Plant response rating, Pigweed
In short: as §1

[14] = system: ragweed (common ragweed, Ambrosia elatior); assay: Test C postemergence; conditions: Ambrosia artemisiifolia, post-emergence, 336 h, Postemergence, scale 0 to 100, read-out: Plant response rating, Ragweed
In short: as §1

soybean (Glycine max) = assay: Test C postemergence; conditions: Glycine max, post-emergence, Postemergence, scale 0 to 100, read-out: Plant response rating, Soybean
In short: as §1

[15] = system: velvetleaf (Abutilon theophrasti); assay: Test C postemergence; conditions: Abutilon theophrasti, post-emergence, Postemergence, scale 0 to 100, read-out: Plant response rating, Velvetleaf
In short: as §1

[16] = system: waterhemp (common waterhemp, Amaranthus rudis); assay: Test C postemergence; conditions: Amaranthus tuberculatus, post-emergence, Postemergence, scale 0 to 100, read-out: Plant response rating, Waterhemp
In short: as §1

wild oat (Avena fatua) = assay: Test C postemergence; conditions: Avena fatua, post-emergence, Postemergence, scale 0 to 100, read-out: Plant response rating, Oat, Wild
In short: as §1

[17] = system: winter wheat (Triticum aestivum); assay: Test C postemergence; conditions: Triticum aestivum, post-emergence, 336 h, Postemergence, scale 0 to 100, read-out: Plant response rating, Wheat
In short: as §1

[18] = system: yellow nutsedge (Cyperus esculentus); assay: Test C postemergence; conditions: Cyperus, post-emergence, 336 h, Postemergence, scale 0 to 100, read-out: Plant response rating, Nutsedge, Yellow
In short: as §1

In the case of `N#Cc1cccc(Oc2ncc(Cl)cn2)c1Oc1cnc(Cl)cn1` [Compound 32, 2-[(5-chloro-2-pyrazinyl)oxy]-3-[(5-chloro-2-pyrimidinyl)oxy]benzonitrile], the pest or weed control at 31 g/ha ([1]; 31 g ai/ha, preemergence) is reported as 95%, the pest or weed control at 62 g/ha ([1]; 62 g ai/ha, preemergence) is reported as 95% and the pest or weed control at 125 g/ha ([1]; 125 g ai/ha, preemergence) is reported as 95%. The pest or weed control at 16 g/ha ([1]; Preemergence, 16 g ai/ha) was 10%, the pest or weed control at 31 g/ha ([2]; 31 g ai/ha, preemergence) was 10% and the pest or weed control at 62 g/ha ([2]; 62 g ai/ha, preemergence) was 40%. It also gave a pest or weed control at 125 g/ha ([2]; 125 g ai/ha, preemergence) of 90%, a pest or weed control at 16 g/ha ([2]; Preemergence, 16 g ai/ha) of 20% and a plant injury at 31 g/ha ([3]; 31 g ai/ha, preemergence) of 95%. It also gave a plant injury at 62 g/ha ([3]; 62 g ai/ha, preemergence) of 95%, a plant injury at 125 g/ha ([3]; 125 g ai/ha, preemergence) of 95% and a plant injury at 16 g/ha ([3]; Preemergence, 16 g ai/ha) of 10%. For the same compound, the pest or weed control at 31 g/ha ([4]; 31 g ai/ha, preemergence) was 100%, the pest or weed control at 62 g/ha ([4]; 62 g ai/ha, preemergence) was 100% and the pest or weed control at 125 g/ha ([4]; 125 g ai/ha, preemergence) was 100%. The pest or weed control at 16 g/ha ([4]; Preemergence, 16 g ai/ha) was 100%, the pest or weed control at 31 g/ha ([5]; 31 g ai/ha) was 5% and the pest or weed control at 62 g/ha ([5]; 62 g ai/ha) was 10%. The pest or weed control at 125 g/ha ([5]; 125 g ai/ha) was 30%, the pest or weed control at 16 g/ha ([6]; 16 g ai/ha) was 10% and the pest or weed control at 31 g/ha ([6]; 31 g ai/ha) was 20%. It also gave a pest or weed control at 62 g/ha ([6]; 62 g ai/ha) of 20%, a pest or weed control at 125 g/ha ([6]; 125 g ai/ha) of 30% and a pest or weed control at 16 g/ha ([7]; 16 g ai/ha) of 5%. For the same compound, the pest or weed control at 31 g/ha ([7]; 31 g ai/ha) was 5%, the pest or weed control at 62 g/ha ([7]; 62 g ai/ha) was 5% and the pest or weed control at 125 g/ha ([7]; 125 g ai/ha) was 10%. For the same compound, the pest or weed control at 16 g/ha ([8]; 16 g ai/ha) was 70%, the pest or weed control at 31 g/ha ([8]; 31 g ai/ha) was 80% and the pest or weed control at 62 g/ha ([8]; 62 g ai/ha) was 80%. It also gave a pest or weed control at 125 g/ha ([8]; 125 g ai/ha) of 85%, a Corn plant response rating (crop injury, 0 = no effect, 100 = complete kill) at 16 g/ha (corn (Zea mays); 16 g ai/ha) of 20% and a Corn plant response rating (crop injury, 0 = no effect, 100 = complete kill) at 31 g/ha (corn (Zea mays); 31 g ai/ha) of 20%. The Corn plant response rating (crop injury, 0 = no effect, 100 = complete kill) at 62 g/ha (corn (Zea mays); 62 g ai/ha) was 25%, the Corn plant response rating (crop injury, 0 = no effect, 100 = complete kill) at 125 g/ha (corn (Zea mays); 125 g ai/ha) was 25% and the pest or weed control at 16 g/ha ([9]; 16 g ai/ha) was 10%. For the same compound, the pest or weed control at 31 g/ha ([9]; 31 g ai/ha) was 10%, the pest or weed control at 62 g/ha ([9]; 62 g ai/ha) was 10% and the pest or weed control at 125 g/ha ([9]; 125 g ai/ha) was 40%. For the same compound, the pest or weed control at 16 g/ha (kochia (Kochia scoparia); 16 g ai/ha) was 90%, the pest or weed control at 31 g/ha (kochia (Kochia scoparia); 31 g ai/ha) was 90% and the pest or weed control at 62 g/ha (kochia (Kochia scoparia); 62 g ai/ha) was 90%. The pest or weed control at 125 g/ha (kochia (Kochia scoparia); 125 g ai/ha) was 90%, the pest or weed control at 16 g/ha ([10]; 16 g ai/ha) was 80% and the pest or weed control at 31 g/ha ([10]; 31 g ai/ha) was 90%. The pest or weed control at 62 g/ha ([10]; 62 g ai/ha) was 85%, the pest or weed control at 125 g/ha ([10]; 125 g ai/ha) was 90% and the pest or weed control at 16 g/ha ([11]; 16 g ai/ha) was 5%. It also gave a pest or weed control at 31 g/ha ([11]; 31 g ai/ha) of 10%, a pest or weed control at 62 g/ha ([11]; 62 g ai/ha) of 20% and a pest or weed control at 125 g/ha ([11]; 125 g ai/ha) of 30%. The plant injury at 31 g/ha ([12]; 31 g ai/ha) was 80%, the plant injury at 62 g/ha ([12]; 62 g ai/ha) was 85% and the plant injury at 125 g/ha ([12]; 125 g ai/ha) was 85%. The pest or weed control at 31 g/ha ([13]; 31 g ai/ha) was 85%, the pest or weed control at 62 g/ha ([13]; 62 g ai/ha) was 90% and the pest or weed control at 125 g/ha ([13]; 125 g ai/ha) was 95%. For the same compound, the pest or weed control at 31 g/ha ([14]; 31 g ai/ha) was 55%, the pest or weed control at 62 g/ha ([14]; 62 g ai/ha) was 80% and the pest or weed control at 125 g/ha ([14]; 125 g ai/ha) was 80%. For the same compound, the plant injury at 31 g/ha (soybean (Glycine max); 31 g ai/ha) was 65%, the plant injury at 62 g/ha (soybean (Glycine max); 62 g ai/ha) was 85% and the plant injury at 125 g/ha (soybean (Glycine max); 125 g ai/ha) was 85%. For the same compound, the pest or weed control at 31 g/ha ([15]; 31 g ai/ha) was 55%, the pest or weed control at 62 g/ha ([15]; 62 g ai/ha) was 60% and the pest or weed control at 125 g/ha ([15]; 125 g ai/ha) was 75%. The pest or weed control at 31 g/ha ([16]; 31 g ai/ha) was 85%, the pest or weed control at 62 g/ha ([16]; 62 g ai/ha) was 85% and the pest or weed control at 125 g/ha ([16]; 125 g ai/ha) was 95%. It also gave a pest or weed control at 31 g/ha (wild oat (Avena fatua); 31 g ai/ha) of 30%, a pest or weed control at 62 g/ha (wild oat (Avena fatua); 62 g ai/ha) of 30% and a pest or weed control at 125 g/ha (wild oat (Avena fatua); 125 g ai/ha) of 30%. It also gave a plant injury at 31 g/ha ([17]; 31 g ai/ha) of 0%, a plant injury at 62 g/ha ([17]; 62 g ai/ha) of 0% and a plant injury at 125 g/ha ([17]; 125 g ai/ha) of 0%. For the same compound, the pest or weed control at 31 g/ha ([18]; 31 g ai/ha) was 20%, the pest or weed control at 62 g/ha ([18]; 62 g ai/ha) was 20% and the pest or weed control at 125 g/ha ([18]; 125 g ai/ha) was 20%.
